Reference: US11912703B2, “6-azaindole compounds” (BRISTOL-MYERS SQUIBB COMPANY, priority 2017, dated 2024)
Where two headings read alike, the source gives them in different places.

Tests used:
human TLR7 = human TLR7 (Homo sapiens (Human), UniProt Q9NYK1); experiment: TLR7 inhibition reporter assay (HEK-Blue SEAP); assay type: cell-based; conditions: HEK-Blue cells overexpressing human TLR7, gardiquimod 7.5 μM stimulation
human TLR8 = human TLR8 (Homo sapiens (Human), UniProt Q9NR97); experiment: TLR8 inhibition reporter assay (HEK-Blue SEAP);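 further: SEAP driven by IFN-β minimal promoter with five NF-κB and AP-1 sites, compounds tested 0.05 nM to 50 µM, 22 h incubation, inhibition relative to agonist plus DMSO wells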
Sequence of human TLR8 (Q9NR97 27-1041): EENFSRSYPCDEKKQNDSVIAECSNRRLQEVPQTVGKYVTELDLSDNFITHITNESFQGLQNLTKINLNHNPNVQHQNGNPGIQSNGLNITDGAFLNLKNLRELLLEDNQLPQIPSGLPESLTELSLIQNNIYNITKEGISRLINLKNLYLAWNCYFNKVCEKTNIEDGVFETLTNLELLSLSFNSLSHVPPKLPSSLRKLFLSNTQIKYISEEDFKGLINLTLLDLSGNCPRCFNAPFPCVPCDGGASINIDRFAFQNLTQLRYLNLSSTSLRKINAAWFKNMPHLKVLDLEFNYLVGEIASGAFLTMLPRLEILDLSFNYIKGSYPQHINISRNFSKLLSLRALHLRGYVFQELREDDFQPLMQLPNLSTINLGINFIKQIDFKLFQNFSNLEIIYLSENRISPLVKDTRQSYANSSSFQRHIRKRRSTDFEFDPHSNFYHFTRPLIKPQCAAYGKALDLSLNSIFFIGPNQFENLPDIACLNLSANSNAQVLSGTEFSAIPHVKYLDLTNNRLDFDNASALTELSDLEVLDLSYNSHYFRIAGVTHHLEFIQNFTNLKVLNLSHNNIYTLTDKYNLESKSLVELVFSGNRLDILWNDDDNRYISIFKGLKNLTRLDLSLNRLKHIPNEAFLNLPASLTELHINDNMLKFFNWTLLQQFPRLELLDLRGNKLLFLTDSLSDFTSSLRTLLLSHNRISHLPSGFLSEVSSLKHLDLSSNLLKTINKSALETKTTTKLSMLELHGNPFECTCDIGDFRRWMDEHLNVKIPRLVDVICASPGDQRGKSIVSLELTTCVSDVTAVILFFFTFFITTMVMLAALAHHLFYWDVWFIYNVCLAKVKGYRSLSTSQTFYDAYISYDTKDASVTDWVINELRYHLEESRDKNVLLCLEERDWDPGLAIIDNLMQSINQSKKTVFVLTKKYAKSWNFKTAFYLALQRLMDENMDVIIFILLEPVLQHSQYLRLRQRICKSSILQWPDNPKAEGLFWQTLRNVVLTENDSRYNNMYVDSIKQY

human TLR9 = human TLR9 (Homo sapiens (Human), UniProt Q9NR96); experiment: TLR9 inhibition reporter assay (HEK-Blue SEAP);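 further: SEAP driven by IFN-β minimal promoter carrying five NF-κB and AP-1 sites, 22 h at 37 °C, compounds 0.05 nM–50 µM, inhibition scaled between agonist-plus-DMSO and reference-inhibitor wells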
Sequence of human TLR9 (Q9NR96 26-1032): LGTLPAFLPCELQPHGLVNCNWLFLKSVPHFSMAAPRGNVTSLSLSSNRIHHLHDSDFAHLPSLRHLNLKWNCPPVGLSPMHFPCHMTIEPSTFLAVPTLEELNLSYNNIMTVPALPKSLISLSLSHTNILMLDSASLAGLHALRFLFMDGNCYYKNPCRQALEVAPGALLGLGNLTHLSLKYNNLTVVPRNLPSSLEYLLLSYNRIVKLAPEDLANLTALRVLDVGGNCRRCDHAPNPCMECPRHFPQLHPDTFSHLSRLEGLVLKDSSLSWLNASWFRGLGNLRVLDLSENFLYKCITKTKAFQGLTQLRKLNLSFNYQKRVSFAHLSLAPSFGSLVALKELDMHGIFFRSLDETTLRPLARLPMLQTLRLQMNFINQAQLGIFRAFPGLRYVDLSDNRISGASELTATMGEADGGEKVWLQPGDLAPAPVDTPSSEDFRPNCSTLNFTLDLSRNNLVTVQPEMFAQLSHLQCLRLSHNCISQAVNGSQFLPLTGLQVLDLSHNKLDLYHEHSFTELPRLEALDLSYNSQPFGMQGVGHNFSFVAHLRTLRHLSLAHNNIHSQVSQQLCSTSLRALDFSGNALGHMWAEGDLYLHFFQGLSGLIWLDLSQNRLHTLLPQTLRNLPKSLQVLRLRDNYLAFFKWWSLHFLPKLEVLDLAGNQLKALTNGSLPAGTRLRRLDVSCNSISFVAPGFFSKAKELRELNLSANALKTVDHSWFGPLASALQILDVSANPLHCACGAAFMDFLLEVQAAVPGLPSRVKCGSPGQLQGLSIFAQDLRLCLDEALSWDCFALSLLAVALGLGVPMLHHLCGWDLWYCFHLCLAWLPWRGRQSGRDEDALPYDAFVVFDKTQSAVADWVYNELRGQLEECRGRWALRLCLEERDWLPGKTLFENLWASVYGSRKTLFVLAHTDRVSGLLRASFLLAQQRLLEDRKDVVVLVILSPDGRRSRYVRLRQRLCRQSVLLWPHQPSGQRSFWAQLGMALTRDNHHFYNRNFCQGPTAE
Description: HEK-Blue™-cells (Invivogen) overexpressing human TLR7, TLR8 or TLR9 receptors were used for screening inhibitors of these receptors using an inducible SEAP (secreted embryonic alkaline phosphatase) reporter gene under the control of the IFN-β minimal promoter fused to five NF-κB and AP-1-binding sites. Briefly, cells are seeded into Greiner 384 well plates (15000 cells per well for TLR7, 20,000 for TLR8 and 25,000 for TLR9) and then treated with test compounds in DMSO to yield a final dose response concentration range of 0.05 nM-50 μM. After a 30 minute compound pre-treatment at room temperature, the cells are then stimulated with a TLR7 ligand (gardiquimod at a final concentration of 7.5 μM), TLR8 ligand (R848 at a final concentration of 15.9 μM) or TLR9 ligand (ODN2006 at a final concentration of 5 nM) to activate NF-κB and AP-1 which induce the production of SEAP. After a 22 hour incubation at 37° C., 500 CO2, SEAP levels are determined with the addition of HEK-Blue™ Detection reagent (Invivogen), a cell culture medium that allows for detection of SEAP, according to manufacturer's specifications.

[1] = read-out: TLR8 IC50; HEK-Blue cells overexpressing human TLR8, R848 15.9 μM stimulation, SEAP reporter
[2] = read-out: TLR9 IC50; HEK-Blue cells overexpressing human TLR9, ODN2006 5 nM stimulation, SEAP reporter
[3] = read-out: TLR8 IC50; HEK-Blue cells overexpressing human TLR8; R848 15.9 μM stimulation; SEAP reporter
[4] = read-out: TLR9 IC50; HEK-Blue cells overexpressing human TLR9; ODN2006 5 nM stimulation; SEAP reporter

Sequence of human TLR7 (Q9NYK1 27-1049): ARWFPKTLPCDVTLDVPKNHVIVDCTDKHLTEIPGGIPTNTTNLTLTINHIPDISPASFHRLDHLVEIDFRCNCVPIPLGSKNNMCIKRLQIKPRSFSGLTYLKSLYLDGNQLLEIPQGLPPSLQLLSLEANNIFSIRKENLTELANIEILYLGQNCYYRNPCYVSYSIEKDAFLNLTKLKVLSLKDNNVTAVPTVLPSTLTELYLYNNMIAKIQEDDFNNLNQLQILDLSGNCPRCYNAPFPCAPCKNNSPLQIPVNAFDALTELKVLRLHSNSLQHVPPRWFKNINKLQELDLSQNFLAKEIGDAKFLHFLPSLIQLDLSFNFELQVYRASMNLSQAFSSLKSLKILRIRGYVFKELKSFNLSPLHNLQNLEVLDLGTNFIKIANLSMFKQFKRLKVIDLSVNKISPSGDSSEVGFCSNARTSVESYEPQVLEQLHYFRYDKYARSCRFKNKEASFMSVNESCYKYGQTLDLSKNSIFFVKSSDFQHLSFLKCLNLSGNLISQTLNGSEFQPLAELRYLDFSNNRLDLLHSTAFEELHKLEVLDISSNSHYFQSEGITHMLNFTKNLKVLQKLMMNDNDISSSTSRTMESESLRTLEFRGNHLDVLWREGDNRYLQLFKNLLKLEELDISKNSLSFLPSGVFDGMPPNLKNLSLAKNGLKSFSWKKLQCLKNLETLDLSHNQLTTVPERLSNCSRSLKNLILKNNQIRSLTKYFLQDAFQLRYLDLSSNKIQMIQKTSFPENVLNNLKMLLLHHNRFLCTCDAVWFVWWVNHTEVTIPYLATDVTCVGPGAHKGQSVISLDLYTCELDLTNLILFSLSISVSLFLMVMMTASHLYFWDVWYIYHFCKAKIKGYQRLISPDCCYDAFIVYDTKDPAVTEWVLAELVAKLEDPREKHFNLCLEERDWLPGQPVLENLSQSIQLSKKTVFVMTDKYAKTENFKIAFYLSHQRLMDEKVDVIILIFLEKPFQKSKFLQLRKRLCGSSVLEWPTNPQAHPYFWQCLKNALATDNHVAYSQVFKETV

IC50 (human TLR7) [nM] | IC50 (human TLR8; [1]) [nM] | IC50 (human TLR9; [2]) [nM] | IC50 (human TLR8; [3]) [nM] | IC50 (human TLR9; [4]) [nM] | Compound
34 | 32 | 548 | – | – | Cc1c(-c2[nH]c3cnc(C4CCC(NCC(C)(C)O)CC4)c(C)c3c2C(C)C)cn2ncnc2c1C (stereo not drawn) [Example 92]
0.05 | – | – | 0.05 | 10900 | Cc1c(-c2[nH]c3cnc(N4CCN(C)C[C@H]4C)c(F)c3c2C(C)C)cn2ncnc2c1C [Example 454]
2.5 | 7.4 | 1080 | – | – | Cc1cc(-c2[nH]c3cnc(C4CCN(C(C)C)CC4)c(F)c3c2C(C)C)cc(C)n1 [Example 97]
16 | 43 | 36400 | – | – | Cc1c(N2CCC(N3CCS(=O)(=O)CC3)CC2)ncc2[nH]c(-c3cc(C)c4ncnn4c3)c(C(C)C)c12 [Example 281]
7 | 47 | 303 | – | – | CNC(=O)CN1CCC(c2cc3c(C(C)C)c(-c4cc(OC)c5ncnn5c4)[nH]c3cn2)CC1 [Example 292]
1.4 | 0.51 | 8730 | – | – | Cc1c(-c2[nH]c3cnc(N4CCNCC4)c(F)c3c2C(C)C)cn2ncnc2c1C [Example 393]
25 | 13 | > 50000 | – | – | COc1cc(-c2[nH]c3cnc(N4CCN(C(=O)CN5CCOCC5)C[C@H]4C)c(F)c3c2C(C)C)cn2ncnc12 [Example 438]
19 | 48 | 208 | – | – | Cc1c(-c2[nH]c3cnc(C4CCN(C(=O)CN(C)C)CC4)cc3c2C(C)C)cn2ncnc2c1C [Example 36]
2.1 | 7.1 | 34 | – | – | COc1cc(-c2[nH]c3cnc(C4CCC(NC5CCOC5)CC4)cc3c2C(C)C)cn2ncnc12 (stereo not drawn) [Example 317]
0.87 | 0.77 | 2960 | – | – | COc1cc(-c2[nH]c3cnc(C4CCC(NC(C)C)CC4)c(F)c3c2C(C)C)cn2ncnc12 (stereo not drawn) [Example 73]
3.2 | 21 | 1030 | – | – | Cc1cc(-c2[nH]c3cnc(C4CCN(C5COC5)CC4)cc3c2C(C)C)cn2ncnc12 [Example 341]
0.69 | 0.16 | 1640 | – | – | Cc1c(-c2[nH]c3cnc(N4CCC(NC5CCOCC5)CC4)c(F)c3c2C(C)C)cn2ncnc2c1C [Example 264]
4.7 | 14 | 1200 | – | – | CNCC(=O)N1CCN(c2ncc3[nH]c(-c4cc(OC)c5ncnn5c4)c(C(C)C)c3c2C)CC1 [Example 98]
7.7 | 56 | 154 | – | – | COc1cc(-c2[nH]c3cnc(C4CCC(N5CCC5)CC4)cc3c2C(C)C)cn2ncnc12 (stereo not drawn) [Example 332]
4.9 | 5 | 1950 | – | – | COc1cc(-c2[nH]c3cnc(C4CCC(N(C)C5COC5)CC4)c(F)c3c2C(C)C)cn2ncnc12 (stereo not drawn) [Example 106]
3.1 | 4.7 | 29100 | – | – | CNC(=O)CN1CCN(c2ncc3[nH]c(-c4cc(OC)c5ncnn5c4)c(C(C)C)c3c2Cl)CC1 [Example 293]
2 | 17 | 705 | – | – | COc1cc(-c2[nH]c3cnc(C4CCC(N5CC6(COC6)C5)CC4)c(C)c3c2C(C)C)cn2ncnc12 (stereo not drawn) [Example 246]
44 | 6.6 | 17500 | – | – | CNC(=O)CN1CC2(C1)CN(c1ncc3[nH]c(-c4cn5ncnc5c(C)c4C)c(C(C)C)c3c1F)C2 [Example 395, 2-(6-(2-(7,8-dimethyl-[1,2,4]triazolo[1,5-a]pyridin-6-yl)-4-fluoro-3-isopropyl-1H-pyrrolo[2,3-c]pyridin-5-yl)-2,6-diazaspiro[3.3]heptan-2-yl)-N-methylacetamide]
2.5 | 7.1 | 7490 | – | – | COc1cc(-c2[nH]c3cnc(N4CCN(CC5CC5)C[C@H]4C)c(F)c3c2C(C)C)cn2ncnc12 [Example 442]

IC50 (human TLR7) [nM] | IC50 (human TLR8; [1]) [nM] | IC50 (human TLR9; [2]) [nM] | IC50 (human TLR8; [3]) [nM] | IC50 (human TLR9; [4]) [nM] | Compound
9.5 | 100 | 250 | – | – | Cc1cc(-c2[nH]c3cnc(C4CCN(C(=O)CN(C)C)CC4)cc3c2C(C)C)cn2ncnc12 [Example 5, 2-(dimethylamino)-1-(4-(3-isopropyl-2-(8-methyl-[1,2,4]triazolo[1,5-a]pyridine-6-yl)-1H-pyrrolo[2,3-c]pyridin-5-yl)piperidin-1-yl)ethan-1-one]
6.4 | 5.2 | 3360 | – | – | COc1cc(-c2[nH]c3cnc(N4CCN(CC(=O)N(C)C)CC4)c(C)c3c2C(C)C)cn2ncnc12 [Example 252]
1.4 | 6.9 | 134 | – | – | COc1cc(-c2[nH]c3cnc(C4CCN(C(C)C)CC4)c(C)c3c2C(C)C)cn2ncnc12 [Example 33]
0.36 | 0.33 | 1730 | – | – | COc1cc(-c2[nH]c3cnc(N4CCC(NCC(C)(C)C)CC4)c(C)c3c2C(C)C)cn2ncnc12 [Example 169]
2 | 1.3 | 1160 | – | – | Cc1cc(-c2[nH]c3cnc(C4CCC(NC5CCOCC5)CC4)c(F)c3c2C(C)C)cn2ncnc12 (stereo not drawn) [Example 110]
1.4 | 2.4 | 15800 | – | – | COc1cc(-c2[nH]c3cnc(C4CCC(N(CC#N)C5COC5)CC4)c(F)c3c2C(C)C)cn2ncnc12 (stereo not drawn) [Example 115]
0.8 | 0.25 | 2340 | – | – | COc1cc(-c2[nH]c3cnc(N4CCC(NC5CCOCC5)CC4)c(F)c3c2C(C)C)cn2ncnc12 [Example 100]
8.8 | 36 | 4000 | – | – | Cc1c(-c2[nH]c3cnc(C4CCC(NCC(F)F)CC4)cc3c2C(C)C)cn2ncnc2c1C (stereo not drawn) [Example 336]
1.5 | 5 | 6550 | – | – | CNC(=O)CN1CCC(c2ncc3[nH]c(-c4cc(C)c5ncnn5c4)c(C(C)C)c3c2F)CC1 [Example 181]
11 | 62 | > 50000 | – | – | COc1cc(-c2[nH]c3cnc(N4CCN(C5COC5)C[C@H]4C)c(F)c3c2C(C)C)cn2ncnc12 [Example 440]
15 | 4.7 | 197 | – | – | COc1cc(-c2[nH]c3cnc(C4CCC(NCC5(C)COC5)C4)cc3c2C(C)C)cn2ncnc12 (stereo not drawn) [Example 59]
0.72 | 0.57 | 510 | – | – | Cc1c(-c2[nH]c3cnc(N4CCC(NC(C)C)CC4)c(C)c3c2C(C)C)cn2ncnc2c1C [Example 113]
5 | 6.4 | 4090 | – | – | Cc1cc(-c2[nH]c3cnc(C4CCN(CC(N)=O)CC4)c(F)c3c2C(C)C)cc(C)n1 [Example 152]
14 | 78 | 1220 | – | – | Cc1c(-c2[nH]c3cnc(C4CCC(NC(C)C)CC4)cc3c2C(C)C)cn2ncnc2c1C (stereo not drawn) [Example 326]
4.3 | 11 | 8620 | – | – | COc1cc(-c2[nH]c3cnc(C4CCC(N(C)CC(N)=O)CC4)c(F)c3c2C(C)C)cn2ncnc12 (stereo not drawn) [Example 78]
5 | 1.2 | 502 | – | – | COc1cc(-c2[nH]c3cnc(C4CCC(NCC(C)(C)C)C4)cc3c2C(C)C)cn2ncnc12 (stereo not drawn) [Example 60]
1.9 | – | – | 2.6 | 4320 | COc1cc(-c2[nH]c3cnc(C4CCC(N(C)C(C)C)CC4)c(F)c3c2C(C)C)cn2ncnc12 (stereo not drawn) [Example 227]
2.7 | 4.5 | 403 | – | – | CCN(C)C1CCC(c2ncc3[nH]c(-c4cc(OC)c5ncnn5c4)c(C(C)C)c3c2F)CC1 (stereo not drawn) [Example 77]
